“Also recorded” adds a separate entry of the source.
Tests used:
MLH1 and MSH6 = experiment: Western blot of mismatch repair proteins and acetyllysine in C17.2 neural stem cells; type: cell-based, mouse; settings: 500 nM; for expression of the repair proteins (MMRs: MLH1, MSH6): normoxia or hypoxia
Excerpt: According to the results obtained, the C17.2 neural stem cell subjected to hypoxia experienced repression in the DNA repair (mismatch repair, MMR) system. […] The monoclonal anti MLH1 and MSH6 antibodies were used in the analysis, Nx referring to normoxia and Hx to hypoxia.
The monoclonal antibodies anti-acetyllysine, anti-MLH1 and MSH6 as well as against beta-actin used as a loading control were used in the analysis; wherein Nx refers to Normoxia and Hx to hypoxia.

HCT116/p53-/- = experiment: clonicity assay, HCT116/p53-/-; type: cell-based, human
Protocol: Clonicity assays were conducted to determine the toxicity of FM19G11 in p53-proficient (HT29 and HCT116/p53^+/+) and p53-deficient (HCT116/p53^-/-) tumor cells. Once the HT-29, HCT116/p53^+/+ and HCT116/p53^-/- cells were adhered to the culture plate, they were stimulated with increasing concentrations of FM19G11 (0.5, 1, 5, 10, 20, 50 µM) for 72 hours. After 10 days of stimulation, the number of colonies formed in the plates of treated and untreated cells was determined.
Results of the clonicity assays of HT29 human colon cancer cells, HCT116 cells treated with FM19G11 were monitored up to 10 after the treatment (Figure 28). The IC50 was determined by extrapolating the percentage with the concentration. FM19G11 was used at concentrations: 0.5, 1, 5, 10, 50, 100, 200 µM

[1] = tested on: human dental pulp stem cells; experiment: Annexin V/PI apoptosis and death in dental pulp stem cells; type: cell-based
Protocol: The apoptosis studies were conducted from cell cultures subjected to normoxic and hypoxic conditions in the presence and absence of the compound at 0.5 µM. The presence of phosphatidylserine in the outer part of the plasma membrane, characteristic of apoptotic processes, was detected using Annexin V (fluorescent dye Annexin V-FITC Apoptosis Detection Kit (BD Pharmingen, BD Biosciences) according to the manufacturer's instructions. The cells subjected to the different conditions were incubated with Annexin V for 30 minutes at 4°C. The cells were then incubated with propidium iodide (PI) and analyzed in a FACScalibur flow cytometer ([…]). PI-/AnnexinV+ cells were defined as early apoptotic cells, PI+/AnnexinV+ cells as late apoptotic cells and PI+/AnnexinV- cells as dead cells. Therefore, the number of total apoptotic cells will be the sum of early and late apoptotic cells.

[2] = tested on: histone deacetylase (HDAC); experiment: HDAC Fluorimetric Cellular Activity Assay, HeLa cell extracts; type: cell-based; settings: different concentrations
Protocol: Since FM19G11 was capable of affecting the degree of acetylation of histone H3 and therefore the conformation of chromatin, it was evaluated if FM19G11 favored the transfer of acetyl groups to histone H3 or, on the contrary, prevented histone H3 from being deacetylated. Both effects would cause an increase of the degree of acetylation of histone H3. Immunoprecipitation assays were performed with an antibody recognizing acetyltransferase p300 and then assays for measuring the acetyltransferase activity by means of using the kit "HAT Colorimetric Assay" (BioVision) were carried out. This method consists of detecting NADH since peptide acetylation causes the release of the free form of Coenzyme A, which serves as an essential coenzyme for producing NADH.
The protein extracts were previously immunoprecipitated with an anti-p300 antibody and the acetyltransferase activity measured by the detection of NADH. The evaluation of the histone deacetylase (HDAC) activity (Figure 34 B) was carried out with protein extracts of HeLa cells treated with different concentrations of FM19G11. As a positive control, a fixed concentration of TSA (1 µM) was included and extracts of untreated cells were used as a control. The experiments were carried out following the instructions of the Biomol kit for detecting histone deacetylase activity (HDAC Fluorimetric Cellular Activity Assay, Biomol, Cat. No. AK-503). […]

SMILES: Cc1ccc(C(=O)COC(=O)c2cccc(NC(=O)c3ccc([N+](=O)[O-])cc3[N+](=O)[O-])c2)cc1 [FM19G11, 2-oxo-2-(p-tolyl)ethyl 3-((2,4-dinitro)benzamido)benzoate]
- overall degree of acetylation of different proteins (anti-acetyllysine) (MLH1 and MSH6): increases the overall degree of acetylation
- expression of the repair proteins (MMRs: MLH1, MSH6) (MLH1 and MSH6): capable of recovering the expression of the MMRs more effectively than TSA; also recorded: recovered
- expression of the repair proteins (MMRs: MLH1, MSH6) (MLH1 and MSH6; listed as 19G11): capable of reestablishing the expression
- increase of resistance by loss of function of p53 (ratio of IC50 values in HCT116) (HCT116/p53-/-; HCT116/p53-/- versus HCT116/p53+/+): 4.71 times
- IC50 (HCT116/p53-/-; Homo sapiens, HCT-116, stimulated 72 hours, colonies counted after 10 days, read-out: survival IC50): 16.5 µM
- death (decreased in hypoxia) ([1]; 0.5 µM): reverts the decrease in death
- number of total apoptotic cells (reduced by hypoxia) ([1]; 0.5 µM, 72 hours): capable of reverting said effect
- expression of the tumor suppressor p53 ([1]; hypoxia): recovery of p53
- activity as a histone deacetylase inhibitor [2]: did not show activity
